In ChEMBL document CHEMBL5614401 (Eur J Med Chem, 2024):

Molecular target: T1, Solute carrier family 22 member 12 (Homo sapiens, UniProt Q96S37)
T1 sequence (Q96S37 whole entry): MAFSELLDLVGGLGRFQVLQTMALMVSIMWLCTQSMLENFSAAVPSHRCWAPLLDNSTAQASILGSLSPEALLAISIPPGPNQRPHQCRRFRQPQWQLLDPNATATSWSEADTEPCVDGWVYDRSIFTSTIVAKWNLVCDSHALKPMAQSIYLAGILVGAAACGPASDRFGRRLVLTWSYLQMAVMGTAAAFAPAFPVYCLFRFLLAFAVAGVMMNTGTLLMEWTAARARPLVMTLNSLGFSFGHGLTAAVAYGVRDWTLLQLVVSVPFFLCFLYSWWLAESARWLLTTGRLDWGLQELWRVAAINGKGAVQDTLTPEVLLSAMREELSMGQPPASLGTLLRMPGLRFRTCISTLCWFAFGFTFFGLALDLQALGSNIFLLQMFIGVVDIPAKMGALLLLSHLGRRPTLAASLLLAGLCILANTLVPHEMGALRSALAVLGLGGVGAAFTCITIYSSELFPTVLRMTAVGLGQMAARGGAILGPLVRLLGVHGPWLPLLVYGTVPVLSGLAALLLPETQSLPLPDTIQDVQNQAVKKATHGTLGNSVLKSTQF
Test: Inhibition of human URAT1 transfected in HEK293 cells by measuring 14C-uric acid uptake preincubated for 30 mins followed by 14--uric acid addition and measured after 15 mins by liquid scintillation counter analysis
Type: cell-based

SMILES | IC50 [µM]
O=C(O)/C=C/Cc1c(O)ccc2c1OC(c1cccs1)CC2=O (centres undefined) | 2.18
O=C(O)C/C=C/Cc1c(O)ccc2c1OC(c1csc3ccccc13)CC2=O (centres undefined) | 0.65
C/C(=C\Cc1c(O)ccc2c1OC(c1ccsc1)CC2=O)C(=O)O (centres undefined) | 0.65
O=C(O)/C=C/Cc1cccc2c1OC(c1cc3ccccc3s1)CC2=O (centres undefined) | 1.89

More lines, now with the values ahead:

IC50 [µM] | SMILES
2.18 | C/C(=C\Cc1cccc2c1OC(c1ccsc1)CC2=O)C(=O)O (centres undefined)
0.98 | C/C(=C\Cc1cccc2c1OC(c1cc(Br)cs1)CC2=O)C(=O)O (centres undefined)
2.86 | C/C(=C\Cc1c(O)ccc2c1OC(c1ccc(Cl)cc1)CC2=O)C(=O)O (centres undefined)
3.02 | O=C(O)/C=C/Cc1c(O)ccc2c1OC(c1ccc(O)cc1)CC2=O (centres undefined)
3.59 | O=C(O)/C=C/Cc1cccc2c1OC(c1ccsc1)CC2=O (centres undefined)
